Usually Ki stands for the dissociation constant of the complex between target and ligand, obtained from inhibition or displacement. A lower Ki goes with tighter binding.

Assay [1] deals with Gamma-aminobutyric acid receptor subunit alpha-6 (Rattus norvegicus, UniProt P30191).
Assay [2] has as its target Gamma-aminobutyric acid receptor subunit alpha-4 (Rattus norvegicus, UniProt P28471).

Chain of Gamma-aminobutyric acid receptor subunit alpha-6 (P30191 whole entry): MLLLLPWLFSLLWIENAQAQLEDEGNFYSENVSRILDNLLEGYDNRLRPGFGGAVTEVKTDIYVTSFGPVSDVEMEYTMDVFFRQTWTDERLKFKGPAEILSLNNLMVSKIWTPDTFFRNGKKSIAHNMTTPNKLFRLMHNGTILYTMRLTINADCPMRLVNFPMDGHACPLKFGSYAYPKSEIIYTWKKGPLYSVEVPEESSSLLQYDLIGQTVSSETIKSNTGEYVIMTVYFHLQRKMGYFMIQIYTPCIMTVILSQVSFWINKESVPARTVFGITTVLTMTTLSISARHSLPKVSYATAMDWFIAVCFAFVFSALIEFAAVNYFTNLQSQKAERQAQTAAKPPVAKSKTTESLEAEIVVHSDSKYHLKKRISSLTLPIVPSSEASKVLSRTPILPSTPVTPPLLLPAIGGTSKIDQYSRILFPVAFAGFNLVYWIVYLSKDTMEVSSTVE
Chain of Gamma-aminobutyric acid receptor subunit alpha-4 (P28471 whole entry): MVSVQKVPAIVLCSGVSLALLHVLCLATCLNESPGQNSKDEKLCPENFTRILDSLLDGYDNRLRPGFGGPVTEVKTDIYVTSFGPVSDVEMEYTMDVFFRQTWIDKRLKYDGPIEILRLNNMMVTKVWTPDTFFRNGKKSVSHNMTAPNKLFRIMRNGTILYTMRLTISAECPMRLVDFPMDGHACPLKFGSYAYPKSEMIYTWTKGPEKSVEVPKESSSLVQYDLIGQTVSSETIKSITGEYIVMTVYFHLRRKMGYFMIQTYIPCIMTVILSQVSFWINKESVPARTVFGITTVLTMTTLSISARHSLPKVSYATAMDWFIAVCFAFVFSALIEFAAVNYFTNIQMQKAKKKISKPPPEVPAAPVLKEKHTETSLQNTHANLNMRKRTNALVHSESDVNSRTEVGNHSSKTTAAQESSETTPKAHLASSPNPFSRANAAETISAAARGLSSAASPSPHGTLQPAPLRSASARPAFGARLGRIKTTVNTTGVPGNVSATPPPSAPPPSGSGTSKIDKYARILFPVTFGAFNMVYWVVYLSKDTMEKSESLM

Regarding `O=c1c2cnc3ccccc3c2[nH]n1-c1ccccc1`, the Ki in assay [1] stood at 34.3 nM; in assay [2], 8 nM. On the same counts, the results for `CN1Cc2c(C(=O)OC(C)(C)C)ncn2-c2ccc(Cl)cc2C1=O` are 8.2 nM and 9.5 nM.

Turning to `CN1Cc2c(C(=O)OC(C)(C)C)ncn2-c2ccc(N=[N+]=[N-])cc2C1=O`, the Ki turned out to be 5.3 nM in assay [1] and 5.2 nM in assay [2]. Regarding `COC(=O)c1cc2c(cn1)[nH]c1ccccc12`, the values for the Ki in assay [1] and in assay [2] were 2020 nM and 436 nM, respectively. In assay [1], `CCOC(=O)c1cc2c(cn1)[nH]c1ccccc12` showed a Ki of 2620 nM. That is a single-digit micromolar value.

In the case of `CC(C)(C)OC(=O)c1cc2c(cn1)[nH]c1ccccc12`, the values for the Ki in assay [1] and in assay [2] were 4750 nM and 897 nM, respectively. Regarding `O=c1c2cnc3ccccc3c2[nH]n1-c1ccc(Cl)cc1`, the values for the Ki in assay [1] and in assay [2] were 500 nM and 214 nM, respectively. In the case of `COc1ccc(-n2[nH]c3c(cnc4cc(OC)ccc43)c2=O)cc1`, the Ki is 23 nM in assay [1] and 11.6 nM in assay [2]. For `COc1ccc2ncc3c(=O)n(-c4ccccc4)[nH]c3c2c1`, in that order: 74.5 nM and 22.5 nM.

Consider `COc1ccc(-n2[nH]c3c(cnc4ccccc43)c2=O)cc1` [2-(4-Methoxy-phenyl)-2,5-dihydro-pyrazolo[4,3-c]quinolin-3-one (CGS 9895)], for which the Ki came out at 38.4 nM in assay [1] and 6.8 nM in assay [2]. For `CCc1ccc2c(c1)C(=O)N(C)Cc1c(C(=O)OC(C)(C)C)ncn1-2` [DM 286], in that order: 13.5 nM and 10 nM.

As for `CN1Cc2c(C(=O)OC(C)(C)C)ncn2-c2ccc(OCc3ccccc3)cc2C1=O` [DM-236], the Ki in assay [1] was determined as 1590 nM; in assay [2], 188 nM. For `CCc1c(C(=O)OC)ncc2[nH]c3cc(OC)c(OC)cc3c12` [NSC_104999], the results for the Ki in assay [1] and in assay [2] were 121 nM and 38.5 nM, respectively. As for `CCOC(=O)c1ncc2[nH]c3ccc(OCc4ccccc4)cc3c2c1COC` [NSC_121926], the Ki in assay [1] and in assay [2] was greater than 10000 nM each time.

In the case of `CCOC(=O)c1ncc2[nH]c3cccc(OCc4ccccc4)c3c2c1COC` [NSC_123700], the Ki stood at 1200 nM in assay [1] and 573 nM in assay [2]. In the case of `CCOC(=O)c1ncn2c1CN(C)C(=O)c1cc(N=[N+]=[N-])ccc1-2` [RO-154513], the Ki in assay [1] was found to be 5.3 nM. As to `CN1Cc2c(C(=O)OC(C)(C)C)ncn2-c2ccsc2C1=O` [Ro-19-4603], the Ki came out at 3.6 nM in assay [1] and 6 nM in assay [2]. Consider `CCOC(=O)c1ncn2c1CN(C)C(=O)c1cc(F)ccc1-2` [ethyl 12-fluoro-8-methyl-9-oxo-2,4,8-triazatricyclo[8.4.0.0^{2,6}]tetradeca-1(14),3,5,10,12-pentaene-5-carboxylate], for which affinity in assay [2] was put at a Ki of 118 nM.
